Measurements: PubChem BioAssay AID1963964 (Molecular Pharmacology Branch, DTP, NCI, 2024)
pIC50: −log10 of the molar value.

System: 997726-040-R-J2-PDC tumor spheroids, viability
Assay: Anticancer human tumor 997726-040-R-J2-PDC patient-derived squamous cell lung carcinoma cell line growth inhibition [PI3K]
Conditions: spheroids with HUVEC and MSC; for pIC50: curve of first compound; for viability, T/C: stronger effect = lower value
In short: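 Complex 3D spheroids (cancer cells + endothelial HUVEC + mesenchymal stem cells); drug pairs of targeted agent x inavolisib/alpelisib/duvelisib/copanlisib; half-log series from ~Cmax, max 10 microM if Cmax unknown; endpoint viability.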

[1] = second compound 0.00316 µM, first compound 0.0316 µM
[2] = second compound 0.00316 µM, first compound 0.1 µM
[3] = second compound 0.00316 µM, first compound 0.316 µM
[4] = second compound 0.00316 µM, first compound 1 µM
[5] = second compound 0.00316 µM, first compound 3.16 µM
[6] = second compound 0.00316 µM, first compound 10 µM
[7] = second compound 0.01 µM, first compound 0.0316 µM
[8] = second compound 0.01 µM, first compound 0.1 µM
[9] = second compound 0.01 µM, first compound 0.316 µM
[10] = second compound 0.01 µM, first compound 1 µM
[11] = second compound 0.01 µM, first compound 3.16 µM
[12] = second compound 0.01 µM, first compound 10 µM
[13] = second compound 0.0316 µM, first compound 0.0316 µM
[14] = second compound 0.0316 µM, first compound 0.1 µM
[15] = second compound 0.0316 µM, first compound 0.316 µM
[16] = second compound 0.0316 µM, first compound 1 µM
[17] = second compound 0.0316 µM, first compound 3.16 µM
[18] = second compound 0.0316 µM, first compound 10 µM
[19] = second compound 0.1 µM, first compound 0.0316 µM
[20] = second compound 0.1 µM, first compound 0.1 µM
[21] = second compound 0.1 µM, first compound 0.316 µM
[22] = second compound 0.1 µM, first compound 1 µM
[23] = second compound 0.1 µM, first compound 3.16 µM
[24] = second compound 0.1 µM, first compound 10 µM
[25] = second compound 0.316 µM, first compound 0.0316 µM
[26] = second compound 0.316 µM, first compound 0.1 µM
[27] = second compound 0.316 µM, first compound 0.316 µM
[28] = second compound 0.316 µM, first compound 1 µM
[29] = second compound 0.316 µM, first compound 3.16 µM
[30] = second compound 0.316 µM, first compound 10 µM
[31] = second compound 1 µM, first compound 0.0316 µM
[32] = second compound 1 µM, first compound 0.1 µM
[33] = second compound 1 µM, first compound 0.316 µM
[34] = second compound 1 µM, first compound 1 µM
[35] = second compound 1 µM, first compound 3.16 µM
[36] = second compound 1 µM, first compound 10 µM
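Further: spheroids exposed to compounds for seven days before readout.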

C#Cc1c(F)ccc2cc(O)cc(-c3ncc4c(N5CC6CCC(C5)N6)nc(OCC56CCCN5CC(F)C6)nc4c3F)c12 (centres undefined) + CC(Nc1ccc2c(c1)OCCn1cc(N3C(=O)OCC3C(F)F)nc1-2)C(N)=O
pIC50 (second compound 0.00316 µM): < 5.00
pIC50 (second compound 0.01 µM): < 5.00
pIC50 (second compound 0.0316 µM): 5.27
pIC50 (second compound 0.1 µM): > 7.50
pIC50 (second compound 0.316 µM): > 7.50
pIC50 (second compound 1 µM): > 7.50
viability, T/C [1]: 89.2%
viability, T/C [2]: 97.8%
viability, T/C [3]: 81.8%
viability, T/C [4]: 83.5%
viability, T/C [5]: 75.3%
viability, T/C [6]: 77.4%
viability, T/C [7]: 79%
viability, T/C [8]: 83%
viability, T/C [9]: 79.2%
viability, T/C [10]: 75%
viability, T/C [11]: 68.5%
viability, T/C [12]: 55%
viability, T/C [13]: 62.4%
viability, T/C [14]: 65%
viability, T/C [15]: 55.3%
viability, T/C [16]: 60%
viability, T/C [17]: 55.6%
viability, T/C [18]: 44.2%
viability, T/C [19]: 45.8%
viability, T/C [20]: 43.4%
viability, T/C [21]: 45.5%
viability, T/C [22]: 44.9%
viability, T/C [23]: 38.5%
viability, T/C [24]: 52.9%
viability, T/C [25]: 35.8%
viability, T/C [26]: 36.1%
viability, T/C [27]: 31.9%
viability, T/C [28]: 31.5%
viability, T/C [29]: 25.6%
viability, T/C [30]: 24.8%
viability, T/C [31]: 26.8%
viability, T/C [32]: 30.1%
viability, T/C [33]: 27.2%
viability, T/C [34]: 26.6%
viability, T/C [35]: 26.1%
viability, T/C [36]: 25.1%

CC1(C)CCC(Nc2ncc(C(F)(F)F)c(-c3c[nH]c4c(P(C)(C)=O)c(C#N)ccc34)n2)CN1 (centres undefined) + CC(Nc1ccc2c(c1)OCCn1cc(N3C(=O)OCC3C(F)F)nc1-2)C(N)=O
pIC50 (second compound 0.00316 µM): > 7.50
pIC50 (second compound 0.01 µM): > 7.50
pIC50 (second compound 0.0316 µM): > 7.50
pIC50 (second compound 0.1 µM): > 7.50
pIC50 (second compound 0.316 µM): > 7.50
pIC50 (second compound 1 µM): > 7.50
viability, T/C [1]: 28.7%
viability, T/C [2]: 30%
viability, T/C [3]: 33.1%
viability, T/C [4]: 33.6%
viability, T/C [5]: 32.4%
viability, T/C [6]: 5.79%
viability, T/C [7]: 32.1%
viability, T/C [8]: 30.8%
viability, T/C [9]: 28.8%
viability, T/C [10]: 31%
viability, T/C [11]: 28.3%
viability, T/C [12]: 4.9%
viability, T/C [13]: 25.6%
viability, T/C [14]: 22.9%
viability, T/C [15]: 23.5%
viability, T/C [16]: 26.1%
viability, T/C [17]: 25.2%
viability, T/C [18]: 4.37%
viability, T/C [19]: 14.3%
viability, T/C [20]: 18.4%
viability, T/C [21]: 17.3%
viability, T/C [22]: 21.5%
viability, T/C [23]: 19.6%
viability, T/C [24]: 3.37%
viability, T/C [25]: 14.6%
viability, T/C [26]: 12.9%
viability, T/C [27]: 14.1%
viability, T/C [28]: 13.4%
viability, T/C [29]: 13%
viability, T/C [30]: 1.45%
viability, T/C [31]: 11.4%
viability, T/C [32]: 9.53%
viability, T/C [33]: 10.6%
viability, T/C [34]: 11%
viability, T/C [35]: 12.6%
viability, T/C [36]: 1.25%
